Assay results taken from patent US5705687A, “Neurotropic drug and method for preparation of same” (priority 1993, dated 1998).
Where “and” joins values, the source holds several entries; their conditions need not be identical. Equal values may be shown once. Where a name gives a salt, the structure may show the parent alone. Read-outs that look alike come from different tables or passages of the source.

What was measured:
mice [1] = test: Soporific action of barbital sodium
[2] = Solubility and hygroscopicity; assay type: physicochemical
central nervous system = test: Neuropharmacological screening, overall findings; assay type: in vivo, mice; details: examined dosage range
Experimental: (§1) The myorelaxing effect of the new compounds was tested by the method of the "rotating rod"(Dunham N. W., Miga T. S., A note on a simplex apparatus for detecting neurological deficit in rat and mice, J. Am. Pharm. Ass., 1957, vol. 46, No. 3, pp. 208-209), which allows one to record any abnormalities in coordination and balance, as well as ataxia. The mice in the laboratory tests were placed on a horizontal rod, 2 cm in diameter, rotating at a speed of 5 revolutions per minute. The object was to register the number of mice which were able to maintain equilibrium on the rod for two minutes. Any presence of a myorelaxing component was considered to be a side effect of the substance being studied.

mice [3] = test: Hemic hypoxia (sodium nitrite), lifespan; assay type: in vivo; details: 400 mg/kg i.p., control
Experimental: (§2) The antihypoxic properties of the new compounds were tested in the models of hypoxic normobaric, hemic and histotoxic hypoxia. The hypoxic (hypercapnic) normobaric hypoxia was induced by placing the mice in hermetically sealed transparent boxes, subdivided into compartments, 80 cm^3 each. The animals were observed until all respiratory movements ceased. The hemic hypoxia was induced by the intraperitoneal administration of sodium nitrite in a dose of 400 mg/kg. The hystotoxic hypoxia was induced by the intraperitoneal administration of sodium nitroprussiate, in a dose of a 20 mg/kg dosage.

mice [4] = test: Soporific action of hexobarbital
[5] = Acute toxicity in mice (Litchfield-Wilcockson); assay type: in vivo, white crossbred mice; details: mouse, in vivo
mice [6] = test: Rotating rod: myorelaxation and movement coordination; assay type: in vivo, white crossbred mice
Experimental: as §1

mice [7] = test: Histotoxic hypoxia (sodium nitroprussiate), lifespan; assay type: in vivo; details: 250, 500 and 1000 mg/kg (two values for three doses (so in the source))
Experimental: as §2

mice [8] = test: Conditioned reaction of passive avoidance (CPRA), amnesia by electric shock; assay type: in vivo; details: 250 to 500 mg/kg; earlier tests
Text: The effect produced by the new substance on the processes of the central nervous system was examined on the model of one-time training of mice, of conditioned reaction of passive avoidance (CPRA), where the amnesic effect was produced by electric shock. During the tests, a two-section chamber was used to condition a certain reflex to the lit and darkened sections. First, for two minutes, the amount of time was registered, that a mouse spent in the lit section before entering the darkened section. Then, while in the darkened section, the animal would receive a single electric shock through the electrode floor (training). The training was immediately followed by an electric shock (50 Hz, 0.2 see). […] The substance was intraperitoneally administered 40 min. prior to the start of the training, the control group received a physiological solution. […] The anti-amnesic properties of the new compound are represented by an increase in the latent period before and after the training. (Δt)

[9] = cited from earlier work
[10] = background statement on the known drug; cited from earlier work
mice [11] = test: Orientation reflexes: test of ascent onto an inclined net
mice [12] = test: Spontaneous motor activity (SMA), 40-channel automatic motor meter; details: for Average SMA, M ± m: control 524.0 ± 99.2; for Relative change in activity (%): control = 100

CCC1(CC)C(=O)NC(=O)NC1=O [Barbitol sodium, barbital sodium, reference compound]
Lateral position (min), barbiturate alone (mice [1]; 250 mg/kg i.p., control of each experiment): 31.8 ± 1.1 min and 34.5 ± 1.4 min and 38.1 ± 1.3 min

CC(C)(CO)C(=O)C(=O)NCCCC(=O)O [KPA, N-(4-hydroxy-3,3-dimethyl-2-oxo-1-butyryl)γ-aminobutyric acid]
solubility in acetone or chloroform ([2]; acetone, chloroform): not in acetone or chloroform | solubility in water and alcohol ([2]; water, alcohol): readily soluble | depressing effect on the animals (central nervous system): no depressing effect

O=N[O-].[Na+] [Na-nitrite, sodium nitrite, reference compound]
Average lifespan (sec), hypoxia inducer alone (mice [3]): 790.5 ± 21.1 s

CN1C(=O)NC(=O)C(C)(C2=CCCCC2)C1=O (stereo not shown) [hexobarbital, reference compound]
Duration of sleep (min), barbiturate alone (mice [4]; 100 mg/kg i.p., control): 46.3 ± 2.3 min | Lateral position (min), barbiturate alone (mice [4]; 100 mg/kg i.p., control): 2.4 ± 0.15 min

CC(C)(CO)[C@@H](O)C(=O)NCCCC(=O)O [pantogam, calcium salt of the D-homopantothenic acid, reference compound]
LD50 ([5]; intravenous, read-out: DL50 (the source's name)): 1080 mg/kg | LD50 ([5]; ip, earlier experiments, identical conditions, read-out: DL50 (acute toxicity)): 2250 mg/kg | MTD ([5]; ip, read-out: maximum tolerance level): 1000 mg/kg | loss of movement coordination (side effect) (mice [6]; 300 mg/kg and higher): loss of movement coordination | time of maximum strength (mice [6]; after injection, rotating rod): 30 min | return of movement coordination and muscle strength (not until) (mice [6]; after the start of the experiment): 1.5 h | increase in lifespan (mice [7]): 57% and 85% | anti-amnesic effect (in words) (mice [8]): moderate a anti-amnesic effect | anti-amnesic effect, share of latent period in animals not exposed to the electric shock (mice [8]): 60-75% | undesirable side effects ([9]; known drug, high dose): depression and myorelaxation | penetration of the hematoencephalitic barrier compared to aminalon ([9]; vs aminalon): better penetration | therapeutic index [10]: 3.3 | increase of soporific effect (mice [4]; 500 mg/kg, hexobarbital, indicated earlier): 40% | increase of soporific effect (mice [1]; 500 mg/kg, barbital sodium, indicated earlier): 20% | ED50 (mice [11]; Mus musculus, ip, read-out: average effective dose (DE50)): 680 mg/kg | time of maximum strength (mice [11]; after administration, orientation reflex): 60 min | effect on orientation reflex (mice [11]; mice): suppressed the orientation reflex | decrease in number of runs in the motor meter (mice [12]; 500 mg/kg): 30% | Average SMA, M ± m (mice [12]; 500 mg/kg i.p.): 392.0 ± 307 | Relative change in activity (%) (mice [12]; 500 mg/kg i.p.): 74.8% | Average SMA, M ± m (mice [12]; 1000 mg/kg i.p., P < 0.05): 176.0 ± 116 | Relative change in activity (%) (mice [12]; 1000 mg/kg i.p.): 33.6% | decrease in motor activity (mice [12]; 1000 mg/kg, the maximum tolerable dose): 70% | effect on motor activity (in words) (mice [12]; SMA test, mice): depressing effect on motor activity
